Assay results as given in PubChem BioAssay (NCI).
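Tested at 5 concentrations; 48 h exposure; 96-well plates; endpoints linearly interpolated, else capped at highest concentration. Abbreviation: GI50, concentration required for 50% inhibition of growth. Definition used: TGI = concentration required for complete inhibition of growth.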

Legend:
Test in all cases: NCI tumour cell line growth inhibition, 48 h
HCC-2998 colon = test system: HCC-2998 colon
HCT-116 colon = test system: HCT-116 colon
HL-60(TB) leukemia = test system: HL-60(TB) leukemia
K-562 leukemia = test system: K-562 leukemia
MALME-3M melanoma = test system: MALME-3M melanoma
OVCAR-4 ovarian = test system: OVCAR-4 ovarian
SK-MEL-2 melanoma = test system: SK-MEL-2 melanoma
SK-OV-3 ovarian = test system: SK-OV-3 ovarian
HOP-92 NSCLC = test system: HOP-92 NSCLC
SK-MEL-5 melanoma = test system: SK-MEL-5 melanoma

SMILES	TGI (HCC-2998 colon) [µM]	TGI (HCT-116 colon) [µM]	TGI (HL-60(TB) leukemia) [µM]	TGI (K-562 leukemia) [µM]	TGI (MALME-3M melanoma) [µM]	TGI (OVCAR-4 ovarian) [µM]	TGI (SK-MEL-2 melanoma) [µM]	TGI (SK-OV-3 ovarian) [µM]	TGI (HOP-92 NSCLC) [µM]	TGI (SK-MEL-5 melanoma) [µM]	GI50 (HCC-2998 colon) [µM]	GI50 (HCT-116 colon) [µM]	GI50 (K-562 leukemia) [µM]	GI50 (MALME-3M melanoma) [µM]	GI50 (OVCAR-4 ovarian) [µM]	GI50 (SK-MEL-2 melanoma) [µM]	GI50 (SK-MEL-5 melanoma) [µM]	GI50 (SK-OV-3 ovarian) [µM]
CCO/C(O)=C(/C(=N)N1CCCC1)C(=O)Nc1cccc(C(F)(F)F)c1	> 100	> 100	> 100	> 100	> 100	> 100	> 100	> 100	–	–	–	–	–	–	–	–	–	–
c1ccc2c(Cc3nnc4sc(SSc5nn6c(Cc7c[nH]c8ccccc78)nnc6s5)nn34)c[nH]c2c1	30.4	29.4	75.7	46.5	78.7	> 100	–	> 100	> 100	24.2	–	–	–	–	–	–	–	–
Cc1ccc(-c2n[nH]c(=O)[nH]2)cc1[N+](=O)[O-]	> 100	> 100	> 100	> 100	> 100	> 100	> 100	–	> 100	> 100	–	–	–	–	–	–	–	–
NNC(=S)N1CCN(C(=S)NN)CC1	> 100	> 100	> 100	–	> 100	> 100	> 100	> 100	> 100	> 100	–	–	–	–	–	–	–	–
O=c1[nH]c2cc3[nH]c4ncccc4c(=O)c3cc2[nH]1	> 10	> 10	> 10	–	> 10	> 10	> 10	> 10	> 10	> 10	–	–	–	–	–	–	–	–
O=C(NCCCNCCNC(=O)c1cc(-c2ccccc2)nc2ccccc12)c1cc(-c2ccccc2)nc2ccccc12	3.11	3.04	4.3	4.45	3.43	4.08	–	6.34	6.37	3.03	–	–	–	–	–	–	–	–
COc1cc(S(=O)(=O)Nc2ccc(C3=NNC(c4ccccc4)C3)cc2)ccc1F (stereo not drawn)	> 100	> 100	–	> 100	49.8	> 100	> 100	> 100	–	31.6	54.4	17.3	28.3	13.2	50.6	> 100	13.9	> 100
CN(C)CCCOCCn1c2c(c3ccccc31)CCCC2	28.4	28.8	20.7	58.5	32.5	44.3	26.5	–	46	25.3	–	–	–	–	–	–	–	–
O=C(N[C@H]1c2ccsc2/C(=N/O)[C@H]1O)C(F)(F)F	> 100	> 100	> 100	> 100	> 100	–	> 100	> 100	> 100	> 100	–	–	–	–	–	–	–	–
CC(C)N(C)C(=O)C12C3C4C1C1C2C3C41C#N (stereo not drawn)	> 100	> 100	> 100	> 100	–	> 100	> 100	–	> 100	> 100	–	–	–	–	–	–	–	–
C#CCn1c(=O)c(C#N)c(O)c2cc3ccccc3nc21	> 100	> 100	> 100	> 100	> 100	–	> 100	> 100	> 100	> 100	–	–	–	–	–	–	–	–
C[N+](C)(C)c1ncnc2c1ncn2C1CCCCO1 (stereo not drawn)	–	> 100	> 100	> 100	> 100	> 100	> 100	> 100	> 100	> 100	–	–	–	–	–	–	–	–
COC(=O)[C@@H]1C[C@@]2(C3C=CN(C(=O)C(F)(F)F)C=C3)c3ccccc3N(C(=O)C(F)(F)F)[C@H]2N1C(=O)OC	> 100	> 100	> 100	> 100	> 100	> 100	–	> 100	> 100	> 100	–	–	–	–	–	–	–	–
COc1ccccc1Nc1nc(NNC(=O)Cc2ccccc2)nc(NNC(=O)c2ccncc2)n1	> 10	–	> 10	> 10	> 10	> 10	–	> 10	> 10	> 10	–	–	–	–	–	–	–	–
CC(=O)c1cc2ccccc2n(O)c1=N	> 100	> 100	> 100	–	> 100	> 100	> 100	> 100	> 100	> 100	–	–	–	–	–	–	–	–
O=C1/C(=C2\Sc3c(ccc(Cl)c3Cl)C2=O)Sc2c1ccc(Cl)c2Cl	> 100	> 100	–	> 100	> 100	> 100	> 100	–	> 100	> 100	–	–	–	–	–	–	–	–
CCOc1cc(C2CC(c3ccc(NS(=O)(=O)c4cc([N+](=O)[O-])ccc4C)cc3)=NN2)ccc1O (stereo not drawn)	–	50.6	50.5	99	75.3	71.4	49.9	–	> 100	37.8	–	–	–	–	–	–	–	–
Clc1ccc(N=c2oc3ccccc3cc2-c2nc3ccccc3[nH]2)c(Cl)c1	–	> 100	> 100	> 100	> 100	> 100	–	> 100	> 100	–	–	–	–	–	–	–	–	–
NNc1nncn1N	–	> 100	> 100	> 100	> 85.4	> 96.7	> 100	> 100	> 100	> 100	–	–	–	–	–	–	–	–
CC(C)OP(=O)(OC(C)C)C(C(C)C)N(C)/C(F)=N/C(F)(F)F (stereo not drawn)	> 100	> 100	> 100	> 100	> 100	–	–	> 100	> 100	> 100	–	–	–	–	–	–	–	–
O=c1[nH]c(N/N=C\C(O)C(O)C(O)CO)nc2ccccc12 (stereo not drawn)	–	> 100	> 100	> 100	–	–	> 100	> 100	> 100	> 100	–	–	–	–	–	–	–	–
O=S1(=O)c2ccccc2NC(=S)CC1c1ccccc1 (stereo not drawn)	–	> 100	> 100	> 100	> 100	> 100	–	> 100	–	> 100	–	–	–	–	–	–	–	–
